# Patent EP4741383A1, “COMPOUND AND USE THEREOF AS ANTI-CANCER DRUG” (Tyligand Bioscience (Shanghai) Limited, priority 2023, dated 2025)
# Test system: SK-BR-3
# Test: CellTiter-Glo cell proliferation inhibition, SK-BR-3
# Format: cell-based
# Conditions: Homo sapiens; SK-BR-3 (breast cancer cell line), 72 hours; read-out: Example IC50 (µM) SK-BR-3
# Source text: This experiment used the CellTiter-Glo® Luminescent Cell Viability Assay kit from Promega to evaluate the inhibitory activity of the disclosed compounds on the proliferation of the following cell lines: 4T1 (mouse breast cancer cell line), A20 (mouse B-cell lymphoma cell line), A2780 (human ovarian cancer cell line), AsPC-1 (pancreatic cancer cell line), B16F10 (mouse melanoma cell line), BT549 (human breast cancer cell line), CT26 (mouse colon cancer cell line), EMT6 (mouse breast cancer cell line), HCT116 (colorectal cancer cell line), Jurket (acute leukemia cell line), KP-4 (pancreatic cancer cell line), LL/2 (mouse lung cancer cell line), MCF7 (breast cancer cell line), […] NCI-H358 (lung cancer cell line), NCI-H727 (gastric cancer cell line), NCI-1944 (lung cancer cell line), Pan 04.03 (pancreatic cancer cell line), SK-BR-3 (breast cancer cell line), THP-1 (leukemia cell line), TOV21G (ovarian cancer cell line), U87MG (glioblastoma cell line), and UM-UC-a (bladder cancer cell line).
# All cell lines were purchased from Nanjing Kebai Biotechnology Co., Ltd. The following materials were also used in the experiment: RPMI-1640 media (HyClone, catalog number #SH30022.01), McCoy's 5A media (Thermo Fisher, catalog number #16600-082), MCDB 105 media (Sigma, catalog number #117-500), Medium 199 (Thermo Fisher, catalog number #11150-059), MEM media (Thermo Fisher, catalog number #11095-080), DMEM media (HyClone, catalog number #SH30027.01), fetal bovine serum (FBS) (ExCell, catalog number # M4530), Sodium Pyruvate (100Mm) (Thermo Fisher, catalog number #11360-070), and MEM NEAA (100X) (Thermo Fisher). […]
# Cells were cultured according to the instructions provided by the cell supplier (Nanjing Kebai Biotechnology Co., Ltd.). […] Suspension or adherent cells were collected, and cell viability was determined using the trypan blue exclusion method, ensuring that cell viability was above 90%. […]
row,IC50 [µM],SMILES
1,0.14,O=C(Nc1ccc(-c2csc(CO)c2)cc1)C(=O)Nc1ccc(-c2cc3cc(F)c(-c4nnn[nH]4)cc3n2C2CCC2)cc1 [Example 1]
2,0.057,CC1(n2c(-c3ccc(NC(=O)C(=O)Nc4ccc(N5CCC6(CCOC6)CC5)cc4)cc3)cc3cc(F)c(-c4nnn[nH]4)cc32)CCC1 [Example 68]
3,0.044,O=C(Nc1ccc(-c2cc3cc(F)c(-c4nnn[nH]4)cc3n2C2CCC2)cc1)C(=O)Nc1ccc(N2CCC3(CCC(O)C3)CC2)cc1 (stereo not drawn) [Example 100]
